Measurements: publication PMC7311426, “An amphipathic peptide with antibiotic activity against multidrug-resistant Gram-negative bacteria” (Nature Communications, 2020)
Values after ≈ are worked out from the molar mass of the structure shown. Residues, ends and D or L forms follow the SMILES beside them.

How the values were obtained:
A. baumannii = experiment: microbe, parasite or virus in culture
Description: (§1) Antimicrobial activity of arenicin-3 and its analogs was tested against a panel of bacterial and yeast strains by in vitro broth microdilution (BMD) assay with minimum inhibitory concentration (MIC) determination. Strains were purchased from American Type Culture Collection (ATCC) or obtained from clinical collaborators (full strain profiles provided in Supplementary Data 3). All peptides were prepared in Ringer’s acetate solution, and subsequently diluted fresh in water for each independent assay.
(§2) Assays were performed in Mueller Hinton broth (MHB; BD, Cat. No. 211443) for bacteria, and yeast extract-peptone dextrose (YPD; Sigma-Aldrich, Y1500) for yeast. The concentrations of the peptides and comparator antibiotics/antifungals in the assay wells ranged from either 128 or 64 μg mL^−1, to 0.06 or 0.03 μg mL^−1 as a 12-point dose response plated as a 2-fold dilution series across the wells of the plate in duplicate for each independent biological replicate, using a final cell density of 5 × 10^5 CFU mL^−1 and 2.5 × 10^3 CFU mL^−1 for bacteria and yeast respectively. Final assay volumes were 100 μL per well with MICs determined visually following 18-20 h incubation at 37 °C for bacteria, 24 h incubation at 35 °C for Candida albicans, and 24 h incubation at 35 °C with resazurin addition (0.006%; Sigma-Aldrich, Cat # R7017) for a further 3 h for Cryptococcus neoformans, without shaking. Additional bacterial and yeast susceptibility assays were performed in Cation-Adjusted Mueller Hinton Broth (CAMHB; BD, Cat No. 212322) and Roswell Park Memorial Institute (RPMI) 1640 culture medium (Life Technologies Australia, Cat No. 21870092), respectively, as recommended by CLSI guidelines (M07 11th ed[36] and M27 4th ed[37]). […] Agarose MICs were determined in MHB with 1% agarose (Bioline molecular grade; Cat no: BIO-41025; high purity, high gel strength). All experiments were performed a minimum of six replicates (n ≥ 6).

C. albicans = experiment: microbe, parasite or virus in culture; conditions: 24 h
Description: as §1, §2

E. coli = experiment: microbe, parasite or virus in culture
Description: as §1, §2

K. pneumoniae = experiment: microbe, parasite or virus in culture
Description: as §1, §2

P. aeruginosa = experiment: microbe, parasite or virus in culture
Description: as §1, §2

S. aureus = experiment: microbe, parasite or virus in culture
Description: as §1, §2

E. coli ATCC 25922 = experiment: microbe, parasite or virus in culture; assay type: cell-based, Escherichia coli; conditions: ATCC 25922
Description: Assays were performed in Mueller Hinton broth (MHB; BD, Cat. No. 211443) for bacteria, and yeast extract-peptone dextrose (YPD; Sigma-Aldrich, Y1500) for yeast. The concentrations of the peptides and comparator antibiotics/antifungals in the assay wells ranged from either 128 or 64 μg mL^−1, to 0.06 or 0.03 μg mL^−1 as a 12-point dose response plated as a 2-fold dilution series across the wells of the plate in duplicate for each independent biological replicate, using a final cell density of 5 × 10^5 CFU mL^−1 and 2.5 × 10^3 CFU mL^−1 for bacteria and yeast respectively. Final assay volumes were 100 μL per well with MICs determined visually following 18-20 h incubation at 37 °C for bacteria, 24 h incubation at 35 °C for Candida albicans, and 24 h incubation at 35 °C with resazurin addition (0.006%; Sigma-Aldrich, Cat # R7017) for a further 3 h for Cryptococcus neoformans, without shaking. Additional bacterial and yeast susceptibility assays were performed in Cation-Adjusted Mueller Hinton Broth (CAMHB; BD, Cat No. 212322) and Roswell Park Memorial Institute (RPMI) 1640 culture medium (Life Technologies Australia, Cat No. 21870092), respectively, as recommended by CLSI guidelines (M07 11th ed[36] and M27 4th ed[37]). […] However, for yeast it was determined that the YPD media was more reliable and robust between repeats and therefore MICs in this media are reported. […] Agarose MICs were determined in MHB with 1% agarose (Bioline molecular grade; Cat no: BIO-41025; high purity, high gel strength). All experiments were performed a minimum of six replicates (n ≥ 6).

in vitro = conditions: human
Description: (§3) HEK-293 human embryonic kidney cells (ATCC CRL-1573), HepG2 liver hepatocellular carcinoma cells (ATCC HB-8065), and HK-2 human kidney proximal tubule cells (ATCC CRL-2190) cell lines were purchased from ATCC. Cytotoxicity of arenicin-3 variants was determined using the Alamar Blue (resazurin; Sigma-Aldrich, Cat # R7017), with 1% FBS for HK-2 and 10% FBS for HEK-293, and HepG2[40]. Cells were seeded as 2000 cells per well in black wall clear bottom 384-well plates (Corning®, Costar®, Cat # 3712). The cells were incubated for 24 h at 37 °C, 5% CO2. Then peptides were added into each cell containing well. After 24 h incubation, 5 μM resazurin were added per well and incubated at 37 °C for 2 h. Then the fluorescence intensity (FI) was read using a Polarstar® Omega plate reader with excitation/emission 560/590 and CC50 values were determined using Prism 8 following curve fitting and applying the following equation: Percentageviability = (FITEST-FINegative/FIUNTREATED-FINegative)×100.
(§4) Hemolytic activity was measured against isolated human erythrocytes from anonymously donated fresh human blood. Isolated erythrocytes were adjusted to 1 × 10^9 blood cells mL^−1 in phosphate-buffered saline (PBS, pH 7.4), added to the wells of NUNC polypropylene round-bottom 96-well plates (Sigma-Aldrich, Cat # P6866) then up to 300 μg mL^−1 of compound was added per well and incubated for 3 h at 37 °C. Following incubation, samples were centrifuged at 3000 rpm for 20 min, and the supernatants, 100 μL, were carefully collected for measurement. The degree of hemolysis in the samples was determined by measurement of the absorption of the supernatants at 540 nm using the Polarstar-Omega plate reader. 1% Triton-X100 was used as positive control for inducing 100% hemolysis. HC10 and HC50 values were determined using Prism 8 following curve fitting. The use of human blood (sourced from the Australian Red Cross Blood Service) for hemolysis assays was approved by the University of Queensland Institutional Human Research Ethics Committee, Approval Number 2014000031. All in vitro toxicity assays were performed for two independent biological replicates as an 8-point dose response of 3-fold dilution series in triplicate with the highest test concentration of 300 μg mL^−1.

[1] = tested on: HEK-293 human embryonic kidney cells; experiment: in vitro
Description: as §3, §4

[2] = tested on: HK-2 human kidney proximal tubule cells; experiment: in vitro
Description: as §3, §4

[3] = tested on: HepG2 liver hepatocellular carcinoma cells; experiment: in vitro
Description: as §3, §4

[4] = tested on: human erythrocytes (HRBC); assay type: cell-based; conditions: for Heamolysis HC10: red cells of human, 3 h

SMILES	BMD MIC (A. baumannii) [µg/mL]	BMD MIC (C. albicans) [µg/mL]	BMD MIC (E. coli) [µg/mL]	BMD MIC (K. pneumoniae) [µg/mL]	BMD MIC (P. aeruginosa) [µg/mL]	BMD MIC (S. aureus) [µg/mL]	MIC, MHB (E. coli ATCC 25922) [µg/mL]	CC50 at 24 h (in vitro; HEK-293 cells) [µg/mL]	CC50 at 24 h (in vitro; HK-2 cells) [µg/mL]	CC50 at 24 h (in vitro; HepG2 cells) [µg/mL]	CC50 HEK293, Mean [1] [µg/mL]	CC50 HK2, Mean [2] [µg/mL]	CC50 HepG2, Mean [3] [µg/mL]	Heamolysis HC10, Mean [4] [µg/mL]	CC50 HEK293 [1] [µg/mL]	CC50 HK2 [2] [µg/mL]	CC50 HepG2 [3] [µg/mL]	Heamolysis HC10 [4] [µg/mL]
CC(C)C[C@@H]1NC(=O)CNC(=O)[C@H](CC(N)=O)NC(=O)[C@H](CCCNC(=N)N)NC(=O)[C@H](CO)NC(=O)[C@H](C)NC(=O)[C@@H]2CSSC[C@H](NC(=O)[C@H](C(C)C)NC(=O)[C@H](CCCNC(=N)N)NC1=O)C(=O)N[C@@H](Cc1ccc(O)cc1)C(=O)N[C@@H](CCCNC(=N)N)C(=O)N[C@@H](CCCNC(=N)N)C(=O)N[C@H](C(=O)N[C@@H](CC(N)=O)C(=O)O)CSSC[C@H](NC(=O)[C@H](Cc1ccccc1)NC(=O)CN)C(=O)N[C@@H](Cc1c[nH]c3ccccc13)C(=O)N[C@@H](CCCNC(=N)N)C(=O)N[C@@H](C(C)C)C(=O)N2 [NZ17125] (HELM PEPTIDE1{G.F.C.W.R.V.C.A.S.R.N.G.L.R.V.C.Y.R.R.C.N}$PEPTIDE1,PEPTIDE1,3:R3-20:R3|PEPTIDE1,PEPTIDE1,7:R3-16:R3$$$V2.0)	1	64	0.125	0.25	0.25	64	0.125 (≈ 0.0497 µM)	250 (≈ 99.4 µM)	110 (≈ 43.7 µM)	299 (≈ 119 µM)	250 (≈ 99.4 µM)	110 (≈ 43.7 µM)	299 (≈ 119 µM)	181				
CC(C)[C@@H]1NC(=O)CNC(=O)[C@H](CC(N)=O)NC(=O)[C@H](CCCNC(=N)N)NC(=O)[C@H](CCCCN)NC(=O)[C@H](C(C)C)NC(=O)[C@@H]2CSSC[C@H](NC(=O)[C@H](CO)NC(=O)[C@H](CCCNC(=N)N)NC1=O)C(=O)N[C@@H](Cc1ccc(O)cc1)C(=O)N[C@@H](CCCNC(=N)N)C(=O)N[C@@H](CCCNC(=N)N)C(=O)N[C@H](C(=O)N[C@@H](CC(N)=O)C(=O)O)CSSC[C@H](NC(=O)[C@H](Cc1ccccc1)NC(=O)CN)C(=O)N[C@@H](Cc1c[nH]c3ccccc13)C(=O)N[C@@H](Cc1ccc(O)cc1)C(=O)N[C@@H](C(C)C)C(=O)N2 [NZ17160] (HELM PEPTIDE1{G.F.C.W.Y.V.C.V.K.R.N.G.V.R.S.C.Y.R.R.C.N}$PEPTIDE1,PEPTIDE1,3:R3-20:R3|PEPTIDE1,PEPTIDE1,7:R3-16:R3$$$V2.0)	1	64	0.125	0.25	0.5	>64	0.125 (≈ 0.0487 µM)	> 300	> 250	> 300	>300	>250	>300	>300	>300	>257	>300	>300
CC(C)[C@@H]1NC(=O)CNC(=O)[C@H](CC(N)=O)NC(=O)[C@H](CCCNC(=N)N)NC(=O)[C@H](CCCNC(=N)N)NC(=O)[C@H](C)NC(=O)[C@@H]2CSSC[C@H](NC(=O)[C@H](C(C)C)NC(=O)[C@H](CCCNC(=N)N)NC1=O)C(=O)N[C@@H](Cc1ccc(O)cc1)C(=O)N[C@@H](CCCNC(=N)N)C(=O)N[C@@H](CCCNC(=N)N)C(=O)N[C@H](C(=O)N[C@@H](CC(N)=O)C(=O)O)CSSC[C@H](NC(=O)[C@H](Cc1ccccc1)NC(=O)CN)C(=O)N[C@@H](Cc1c[nH]c3ccccc13)C(=O)N[C@@H](Cc1c[nH]cn1)C(=O)N[C@@H](C(C)C)C(=O)N2 [NZ17224] (HELM PEPTIDE1{G.F.C.W.H.V.C.A.R.R.N.G.V.R.V.C.Y.R.R.C.N}$PEPTIDE1,PEPTIDE1,3:R3-20:R3|PEPTIDE1,PEPTIDE1,7:R3-16:R3$$$V2.0)	0.5	32	0.06	0.25	0.25	64	0.06 (≈ 0.0235 µM)	> 300	> 250	> 300	>300	>250	>300	>300	>300	>255	>300	>300
CC(C)[C@@H]1NC(=O)CNC(=O)[C@H](CC(N)=O)NC(=O)[C@H](CCCNC(=N)N)NC(=O)[C@H](Cc2ccc(O)cc2)NC(=O)[C@H](C(C)C)NC(=O)[C@@H]2CSSC[C@H](NC(=O)[C@H](C)NC(=O)[C@H](CCCNC(=N)N)NC1=O)C(=O)N[C@@H](Cc1ccc(O)cc1)C(=O)N[C@@H](CCCNC(=N)N)C(=O)N[C@@H](CCCNC(=N)N)C(=O)N[C@H](C(=O)N[C@@H](CC(N)=O)C(=O)O)CSSC[C@H](NC(=O)[C@H](Cc1ccccc1)NC(=O)CN)C(=O)N[C@@H](Cc1c[nH]c3ccccc13)C(=O)N[C@@H](CCCNC(=N)N)C(=O)N[C@@H](C)C(=O)N2 [NZ17228] (HELM PEPTIDE1{G.F.C.W.R.A.C.V.Y.R.N.G.V.R.A.C.Y.R.R.C.N}$PEPTIDE1,PEPTIDE1,3:R3-20:R3|PEPTIDE1,PEPTIDE1,7:R3-16:R3$$$V2.0)	1	64	0.125	0.25	0.5	64	0.125 (≈ 0.049 µM)	> 300	> 250	> 300	>300	>250	>300	>300	>300	>255	>300	>300
